# Reference: PubChem BioAssay AID1963828 (Molecular Pharmacology Branch, DTP, NCI, 2024)
# System: 991263-137-R1-J2-PDC complex spheroid viability
# Experiment: Anticancer human tumor 991263-137-R1-J2-PDC patient-derived colon adenocarcinoma cell line growth inhibition [POLQ]
# Conditions: for IC50: curve of first compound; for viability, T/C: stronger effect = lower value
# How it was run: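 PDC + HUVEC + MSC complex spheroids; POLQ inhibitors ± partner drugs; top conc. at/near clinical Cmax, else 10 microM (SN-38 1 microM), half-log dilutions; 37 degrees C, 5% CO2.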
# [1] = second compound 0.0316 µM, first compound 0.0316 µM
# [2] = second compound 0.0316 µM, first compound 0.1 µM
# [3] = second compound 0.0316 µM, first compound 0.316 µM
# [4] = second compound 0.0316 µM, first compound 1 µM
# [5] = second compound 0.0316 µM, first compound 3.16 µM
# [6] = second compound 0.0316 µM, first compound 10 µM
# [7] = second compound 0.1 µM, first compound 0.0316 µM
# [8] = second compound 0.1 µM, first compound 0.1 µM
# [9] = second compound 0.1 µM, first compound 0.316 µM
# [10] = second compound 0.1 µM, first compound 1 µM
# [11] = second compound 0.1 µM, first compound 3.16 µM
# [12] = second compound 0.1 µM, first compound 10 µM
# [13] = second compound 0.316 µM, first compound 0.0316 µM
# [14] = second compound 0.316 µM, first compound 0.1 µM
# [15] = second compound 0.316 µM, first compound 0.316 µM
# [16] = second compound 0.316 µM, first compound 1 µM
# [17] = second compound 0.316 µM, first compound 3.16 µM
# [18] = second compound 0.316 µM, first compound 10 µM
# [19] = second compound 1 µM, first compound 0.0316 µM
# [20] = second compound 1 µM, first compound 0.1 µM
# [21] = second compound 1 µM, first compound 0.316 µM
# [22] = second compound 1 µM, first compound 1 µM
# [23] = second compound 1 µM, first compound 3.16 µM
# [24] = second compound 1 µM, first compound 10 µM
# [25] = second compound 3.16 µM, first compound 0.0316 µM
# [26] = second compound 3.16 µM, first compound 0.1 µM
# [27] = second compound 3.16 µM, first compound 0.316 µM
# [28] = second compound 3.16 µM, first compound 1 µM
# [29] = second compound 3.16 µM, first compound 3.16 µM
# [30] = second compound 3.16 µM, first compound 10 µM
# [31] = second compound 10 µM, first compound 0.0316 µM
# [32] = second compound 10 µM, first compound 0.1 µM
# [33] = second compound 10 µM, first compound 0.316 µM
# [34] = second compound 10 µM, first compound 1 µM
# [35] = second compound 10 µM, first compound 3.16 µM
# [36] = second compound 10 µM, first compound 10 µM
# 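Note: spheroids exposed to compounds for 7 days before readout.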
# 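Throughout, for viability, T/C: 100% = DMSO vehicle control viability.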
compound,measurement,setting,value
COc1cc2cc(C(=O)CCC(=O)O)sc2cc1OC + COC1C(OC(N)=O)C(O)C(Oc2ccc3c(O)c(NC(=O)c4ccc(O)c(CC=C(C)C)c4)c(=O)oc3c2C)OC1(C)C,IC50,second compound 0.0316 µM,> 10 µM
same,IC50,second compound 0.1 µM,> 10 µM
same,IC50,second compound 0.316 µM,> 10 µM
same,IC50,second compound 1 µM,> 10 µM
same,IC50,second compound 3.16 µM,> 10 µM
same,IC50,second compound 10 µM,> 10 µM
same,"viability, T/C",[1],97%
same,"viability, T/C",[2],109%
same,"viability, T/C",[3],103%
same,"viability, T/C",[4],83.6%
same,"viability, T/C",[5],89.7%
same,"viability, T/C",[6],95.1%
same,"viability, T/C",[7],99.9%
same,"viability, T/C",[8],105%
same,"viability, T/C",[9],99.7%
same,"viability, T/C",[10],90.4%
same,"viability, T/C",[11],116%
same,"viability, T/C",[12],83%
same,"viability, T/C",[13],119%
same,"viability, T/C",[14],130%
same,"viability, T/C",[15],112%
same,"viability, T/C",[16],110%
same,"viability, T/C",[17],94%
same,"viability, T/C",[18],96.8%
same,"viability, T/C",[19],108%
same,"viability, T/C",[20],107%
same,"viability, T/C",[21],115%
same,"viability, T/C",[22],110%
same,"viability, T/C",[23],91.9%
same,"viability, T/C",[24],90.2%
same,"viability, T/C",[25],114%
same,"viability, T/C",[26],97.9%
same,"viability, T/C",[27],90.2%
same,"viability, T/C",[28],118%
same,"viability, T/C",[29],121%
same,"viability, T/C",[30],80.5%
same,"viability, T/C",[31],117%
same,"viability, T/C",[32],112%
same,"viability, T/C",[33],109%
same,"viability, T/C",[34],97.7%
same,"viability, T/C",[35],126%
same,"viability, T/C",[36],88.7%
O=C(Nc1ccc(O)c(NS(=O)(=O)c2ccc(F)cc2)c1)c1ccc(-c2ccccc2)cc1 + COC1C(OC(N)=O)C(O)C(Oc2ccc3c(O)c(NC(=O)c4ccc(O)c(CC=C(C)C)c4)c(=O)oc3c2C)OC1(C)C,IC50,second compound 0.0316 µM,> 10 µM
same,IC50,second compound 0.1 µM,> 10 µM
same,IC50,second compound 0.316 µM,> 10 µM
same,IC50,second compound 1 µM,> 10 µM
same,IC50,second compound 3.16 µM,> 10 µM
same,IC50,second compound 10 µM,> 10 µM
same,"viability, T/C",[1],87.8%
same,"viability, T/C",[2],111%
same,"viability, T/C",[3],112%
same,"viability, T/C",[4],93.5%
same,"viability, T/C",[5],89.3%
same,"viability, T/C",[6],105%
same,"viability, T/C",[7],110%
same,"viability, T/C",[8],119%
same,"viability, T/C",[9],113%
same,"viability, T/C",[10],79.6%
same,"viability, T/C",[11],110%
same,"viability, T/C",[12],93.5%
same,"viability, T/C",[13],93.9%
same,"viability, T/C",[14],112%
same,"viability, T/C",[15],92.8%
same,"viability, T/C",[16],106%
same,"viability, T/C",[17],93.1%
same,"viability, T/C",[18],92.8%
same,"viability, T/C",[19],119%
same,"viability, T/C",[20],101%
same,"viability, T/C",[21],100%
same,"viability, T/C",[22],109%
same,"viability, T/C",[23],109%
same,"viability, T/C",[24],96.3%
same,"viability, T/C",[25],101%
same,"viability, T/C",[26],103%
same,"viability, T/C",[27],91.2%
same,"viability, T/C",[28],79.1%
same,"viability, T/C",[29],111%
same,"viability, T/C",[30],79.6%
same,"viability, T/C",[31],96.5%
same,"viability, T/C",[32],112%
same,"viability, T/C",[33],103%
same,"viability, T/C",[34],104%
same,"viability, T/C",[35],102%
same,"viability, T/C",[36],91.5%
COc1cccc2c1C(=O)c1c(O)c3c(c(O)c1C2=O)CC(O)(C(=O)CO)CC3OC1CC(N)C(O)C(C)O1 (stereo unspecified) + Cc1cccc(N(C)C(=O)C2C(O)CCN2c2nc(C)cc(C(F)(F)F)c2C#N)c1,IC50,second compound 0.0316 µM,1.41 µM
same,IC50,second compound 0.1 µM,1.85 µM
same,IC50,second compound 0.316 µM,1.74 µM
same,IC50,second compound 1 µM,0.976 µM
same,IC50,second compound 3.16 µM,1.01 µM
same,IC50,second compound 10 µM,0.79 µM
same,"viability, T/C",[1],90.1%
same,"viability, T/C",[2],99.4%
same,"viability, T/C",[3],79.1%
same,"viability, T/C",[4],55.9%
same,"viability, T/C",[5],38.5%
same,"viability, T/C",[6],35.3%
same,"viability, T/C",[7],105%
same,"viability, T/C",[8],91.9%
same,"viability, T/C",[9],92.2%
same,"viability, T/C",[10],56.7%
same,"viability, T/C",[11],46.2%
same,"viability, T/C",[12],33.8%
same,"viability, T/C",[13],114%
same,"viability, T/C",[14],99.4%
same,"viability, T/C",[15],94.8%
same,"viability, T/C",[16],57.2%
same,"viability, T/C",[17],41.7%
same,"viability, T/C",[18],34.1%
same,"viability, T/C",[19],92.8%
same,"viability, T/C",[20],95.4%
same,"viability, T/C",[21],102%
same,"viability, T/C",[22],48.9%
same,"viability, T/C",[23],44.3%
same,"viability, T/C",[24],27.6%
same,"viability, T/C",[25],99.6%
same,"viability, T/C",[26],107%
same,"viability, T/C",[27],74.2%
same,"viability, T/C",[28],51.8%
same,"viability, T/C",[29],36.4%
same,"viability, T/C",[30],26.9%
same,"viability, T/C",[31],97.1%
same,"viability, T/C",[32],78.3%
same,"viability, T/C",[33],68.9%
same,"viability, T/C",[34],40.8%
same,"viability, T/C",[35],33.7%
same,"viability, T/C",[36],15.7%
